# Where “and” joins values, the source holds several entries; their conditions need not be identical. Equal values may be shown once. Toxic doses and inconclusive results are not listed.
# Test system: L1210 leukemia ip in BDF1 mice, survival T/C
# Assay: NCI In Vivo Anticancer Drug Screen. Data for tumor model L1210 Leukemia (intraperitoneal) in B6D2F1 (BDF1) mice
# Settings: endpoint: mean survival time, higher = longer survival
# Outline: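 Antitumor effect is assessed in tumor-bearing animals. Survival in the compound arm is compared with a vehicle-dosed control arm and expressed as their quotient.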
# [1] = dose: 100.0 mg/kg/injection, schedule: Q04DX003 (ip), vehicle: saline with Tween-80
# [2] = dose: 100.0 mg/kg/injection, schedule: Q01DX001 (ip), vehicle: saline
# [3] = dose: 200.0 mg/kg/injection, schedule: Q01DX001 (ip), vehicle: saline
# [4] = dose: 400.0 mg/kg/injection, schedule: Q01DX001 (ip), vehicle: saline
# [5] = dose: 100.0 mg/kg/injection, schedule: Q04DX002 (ip), vehicle: saline with Tween-80
# [6] = dose: 200.0 mg/kg/injection, schedule: Q04DX002 (ip), vehicle: saline with Tween-80
# [7] = dose: 400.0 mg/kg/injection, schedule: Q04DX002 (ip), vehicle: saline with Tween-80
# [8] = dose: 100.0 mg/kg/injection, schedule: Q04DX003 (ip), vehicle: saline
# [9] = dose: 100.0 mg/kg/injection, schedule: Q04DX003 (ip), vehicle: Klucel (hydroxypropylcellulose) (HPC)
# [10] = dose: 200.0 mg/kg/injection, schedule: Q04DX003 (ip), vehicle: Klucel (hydroxypropylcellulose) (HPC)
# [11] = dose: 400.0 mg/kg/injection, schedule: Q04DX003 (ip), vehicle: Klucel (hydroxypropylcellulose) (HPC)
compound,measurement,setting,value
O=C(CCl)N=c1cc(-c2ccc(Cl)cc2)ss1,T/C,"dose: 50.0 mg/kg/injection, schedule: Q04DX002 (ip), vehicle: saline",98 % of control
same,T/C,"dose: 100.0 mg/kg/injection, schedule: Q04DX002 (ip), vehicle: saline",98 % of control
CC(C)(NC(=O)OCc1ccccc1)C(=O)O,T/C,[1],98 % of control
same,T/C,"dose: 200.0 mg/kg/injection, schedule: Q04DX003 (ip), vehicle: saline with Tween-80",95 % of control
same,T/C,"dose: 400.0 mg/kg/injection, schedule: Q04DX003 (ip), vehicle: saline with Tween-80",101 % of control
O=C1c2ccccc2C(=O)c2c1ccc(C1C(=O)c3ccccc3C1=O)c2-c1c(C2C(=O)c3ccccc3C2=O)ccc2c1C(=O)c1ccccc1C2=O,T/C,[2],95 % of control
same,T/C,[3],95 % of control
same,T/C,[4],97 % of control
CC(C)(C)NC#SNC(C)(C)C,T/C,[5],100 % of control
same,T/C,[6],92 % of control
same,T/C,[7],92 % of control
CC(=O)OCCOc1ccccc1Cl,T/C,[5],118 % of control
same,T/C,[6],108 % of control
same,T/C,[7],114 % of control
CC12CCC(C(Br)C1=O)C2(C)CS(=O)(=O)O (stereo unspecified),T/C,[2],104 % of control and 101 % of control
same,T/C,"dose: 100.0 mg/kg/injection, schedule: Q01DX009 (ip), vehicle: saline",89 % of control
same,T/C,[8],95 % of control
same,T/C,[3],93 % of control and 104 % of control
same,T/C,"dose: 200.0 mg/kg/injection, schedule: Q01DX009 (ip), vehicle: saline",97 % of control
same,T/C,"dose: 200.0 mg/kg/injection, schedule: Q04DX003 (ip), vehicle: saline",97 % of control
same,T/C,[4],104 % of control
same,T/C,"dose: 400.0 mg/kg/injection, schedule: Q01DX009 (ip), vehicle: saline",92 % of control
same,T/C,"dose: 400.0 mg/kg/injection, schedule: Q04DX003 (ip), vehicle: saline",95 % of control
CSc1ccc(SCCOC(=O)Nc2ccc(Cl)cc2Cl)cc1,T/C,"dose: 50.0 mg/kg/injection, schedule: Q01DX009 (ip), vehicle: saline with Tween-80",91 % of control
same,T/C,"dose: 100.0 mg/kg/injection, schedule: Q01DX009 (ip), vehicle: saline with Tween-80",93 % of control
same,T/C,"dose: 200.0 mg/kg/injection, schedule: Q01DX009 (ip), vehicle: saline with Tween-80",98 % of control
[Cl][Pt+2][Cl].[NH-]C1CCC1.[NH-]C1CCC1,T/C,"dose: 1.0 mg/kg/injection, schedule: Q01DX001 (ip), vehicle: saline with Tween-80",95 % of control
same,T/C,"dose: 1.0 mg/kg/injection, schedule: Q01DX009 (ip), vehicle: saline with Tween-80",108 % of control
same,T/C,"dose: 2.0 mg/kg/injection, schedule: Q01DX001 (ip), vehicle: saline with Tween-80",98 % of control
same,T/C,"dose: 2.0 mg/kg/injection, schedule: Q01DX009 (ip), vehicle: saline with Tween-80",115 % of control
same,T/C,"dose: 4.0 mg/kg/injection, schedule: Q01DX001 (ip), vehicle: saline with Tween-80",109 % of control
same,T/C,"dose: 5.0 mg/kg/injection, schedule: Q04DX003 (ip), vehicle: saline",110 % of control
same,T/C,"dose: 6.25 mg/kg/injection, schedule: Q04DX003 (ip), vehicle: Klucel (hydroxypropylcellulose) (HPC)",103 % of control
same,T/C,"dose: 6.25 mg/kg/injection, schedule: Q04DX003 (ip), vehicle: saline with Tween-80",116 % of control
same,T/C,"dose: 8.0 mg/kg/injection, schedule: Q01DX009 (ip), vehicle: saline with Tween-80",157 % of control
same,T/C,"dose: 10.0 mg/kg/injection, schedule: Q04DX003 (ip), vehicle: saline",123 % of control
same,T/C,"dose: 12.5 mg/kg/injection, schedule: Q04DX003 (ip), vehicle: Klucel (hydroxypropylcellulose) (HPC)",106 % of control
same,T/C,"dose: 16.0 mg/kg/injection, schedule: Q01DX009 (ip), vehicle: saline with Tween-80",214 % of control
same,T/C,"dose: 25.0 mg/kg/injection, schedule: Q04DX003 (ip), vehicle: Klucel (hydroxypropylcellulose) (HPC)",110 % of control
same,T/C,"dose: 32.0 mg/kg/injection, schedule: Q01DX001 (ip), vehicle: saline with Tween-80",154 % of control
same,T/C,"dose: 32.0 mg/kg/injection, schedule: Q01DX009 (ip), vehicle: saline with Tween-80",95 % of control
same,T/C,"dose: 40.0 mg/kg/injection, schedule: Q04DX003 (ip), vehicle: saline",152 % of control
same,T/C,"dose: 50.0 mg/kg/injection, schedule: Q04DX003 (ip), vehicle: saline with Tween-80",195 % of control
same,T/C,"dose: 64.0 mg/kg/injection, schedule: Q01DX001 (ip), vehicle: saline with Tween-80",118 % of control
same,T/C,"dose: 80.0 mg/kg/injection, schedule: Q04DX003 (ip), vehicle: saline",110 % of control
same,T/C,[1],154 % of control
CN1CCN=C1c1ccc(NC(=O)c2ccc(C(=O)Nc3ccc(C4=NCCN4C)cc3)c(N)c2)cc1,T/C,"dose: 3.0 mg/kg/injection, schedule: Q01DX Z (ip), vehicle: carboxymethylcellulose (CMC)",242 % of control
same,T/C,"dose: 6.0 mg/kg/injection, schedule: Q01DX Z (ip), vehicle: carboxymethylcellulose (CMC)",159 % of control
same,T/C,"dose: 6.0 mg/kg/injection, schedule: Q01DX Z (oral), vehicle: water",98 % of control
same,T/C,"dose: 12.0 mg/kg/injection, schedule: Q01DX Z (ip), vehicle: carboxymethylcellulose (CMC)",103 % of control
same,T/C,"dose: 12.0 mg/kg/injection, schedule: Q01DX Z (oral), vehicle: water",95 % of control
same,T/C,"dose: 24.0 mg/kg/injection, schedule: Q01DX Z (oral), vehicle: water",98 % of control
same,T/C,"dose: 48.0 mg/kg/injection, schedule: Q01DX Z (oral), vehicle: water",101 % of control
Cc1cc(C(=O)O)c(CO)c(=O)n1C,T/C,"dose: 100.0 mg/kg/injection, schedule: Q04DX003 (ip), vehicle: water",104 % of control
same,T/C,"dose: 200.0 mg/kg/injection, schedule: Q04DX003 (ip), vehicle: water",104 % of control
same,T/C,"dose: 400.0 mg/kg/injection, schedule: Q04DX003 (ip), vehicle: water",94 % of control
C=CNC(=O)C(c1ccccc1)N1CCCCC1 (stereo unspecified),T/C,"dose: 100.0 mg/kg/injection, schedule: Q01DX001 (ip), vehicle: Klucel (hydroxypropylcellulose) (HPC)",102 % of control
same,T/C,"dose: 200.0 mg/kg/injection, schedule: Q01DX001 (ip), vehicle: Klucel (hydroxypropylcellulose) (HPC)",97 % of control
same,T/C,"dose: 400.0 mg/kg/injection, schedule: Q01DX001 (ip), vehicle: Klucel (hydroxypropylcellulose) (HPC)",103 % of control
Cc1ccc(-c2cc(=S)ss2)cc1,T/C,"dose: 100.0 mg/kg/injection, schedule: Q01DX001 (ip), vehicle: carboxymethylcellulose (CMC)",100 % of control
same,T/C,"dose: 200.0 mg/kg/injection, schedule: Q01DX001 (ip), vehicle: carboxymethylcellulose (CMC)",92 % of control
same,T/C,"dose: 400.0 mg/kg/injection, schedule: Q01DX001 (ip), vehicle: carboxymethylcellulose (CMC)",94 % of control
CC(C)(C)C1(O)CCCCC1,T/C,"dose: 100.0 mg/kg/injection, schedule: Q01DX009 (ip), vehicle: Klucel (hydroxypropylcellulose) (HPC)",99 % of control
same,T/C,[9],98 % of control
same,T/C,"dose: 200.0 mg/kg/injection, schedule: Q01DX009 (ip), vehicle: Klucel (hydroxypropylcellulose) (HPC)",92 % of control
same,T/C,[10],100 % of control
same,T/C,"dose: 400.0 mg/kg/injection, schedule: Q01DX009 (ip), vehicle: Klucel (hydroxypropylcellulose) (HPC)",92 % of control
same,T/C,[11],98 % of control
CCCCCCCCCCCCCCCCOB(OCCCCCCCCCCCCCCCC)OCCCCCCCCCCCCCCCC,T/C,[9],91 % of control
same,T/C,[10],96 % of control
same,T/C,[11],94 % of control
CCCC/C(I)=C\S(=O)(=O)c1ccc(C)cc1,T/C,[2],113 % of control
same,T/C,[3],86 % of control
same,T/C,[4],96 % of control
COC(=O)C1C2CC3c4[nH]c5cc(OC)ccc5c4CCN3CC2CC(OC(=O)c2cc(OC)c(OC)c(OC)c2)C1OC (stereo unspecified),T/C,"dose: 6.25 mg/kg/injection, schedule: Q01DX009 (ip), vehicle: Klucel (hydroxypropylcellulose) (HPC)",94 % of control
same,T/C,"dose: 12.5 mg/kg/injection, schedule: Q01DX009 (ip), vehicle: Klucel (hydroxypropylcellulose) (HPC)",96 % of control
same,T/C,"dose: 25.0 mg/kg/injection, schedule: Q01DX009 (ip), vehicle: Klucel (hydroxypropylcellulose) (HPC)",105 % of control
same,T/C,"dose: 25.0 mg/kg/injection, schedule: Q04DX003 (ip), vehicle: saline",106 % of control
same,T/C,"dose: 50.0 mg/kg/injection, schedule: Q01DX009 (ip), vehicle: Klucel (hydroxypropylcellulose) (HPC)",113 % of control
same,T/C,"dose: 50.0 mg/kg/injection, schedule: Q04DX003 (ip), vehicle: saline",119 % of control
same,T/C,[8],111 % of control
